The OligoGym collection
HELM strings list units from the 5' end as sugar, base in round brackets, then linkage (d deoxyribose, r ribose, m 2'-O-methyl, p phosphodiester). Strings are as the collection lists them, not checked against the first reports. ss, as = sense and antisense strand; [lna] = locked nucleic acid (LNA); [hna] = hexitol nucleic acid; [s4r] = 4'-thioribose; [fl2r] = 2'-fluoro

Conditions: siRNA
Note: test system not given here.

Substance	target mRNA knockdown [%]
RNA1{m(G)p.r(C)p.m(G)p.m(A)p.m(G)p.r(C)p.m(A)p.m(G)p.m(A)p.m(G)p.m(A)p.m(A)p.r(U)p.r(C)p.r(U)p.m(A)p.r(C)p.r(C)p.r(U)p.r(T)p.r(T)}|RNA2{r(A)p.r(G)p.r(G)p.r(U)p.r(A)p.r(G)p.r(A)p.r(U)p.r(U)p.r(C)p.r(U)p.r(C)p.r(U)p.r(G)p.r(C)p.r(U)p.r(C)p.r(G)p.r(C)p.r(T)p.r(T)}$$$RNA1{StrandType:ss}|RNA2{StrandType:as}$	65
RNA1{r(A)p.r(U)p.r(C)p.m(G)p.r(A)p.r(C)p.r(C)p.m(U)p.r(G)p.r(A)p.r(A)p.r(G)p.r(G)p.r(A)p.r(G)p.m(U)p.r(A)p.r(C)p.r(G)p.r(T)p.r(T)}|RNA2{r(C)p.r(G)p.m(U)p.r(A)p.r(C)p.r(U)p.r(C)p.r(C)p.r(U)p.r(U)p.m(C)p.r(A)p.r(G)p.r(G)p.r(U)p.r(C)p.r(G)p.r(A)p.r(U)p.r(T)p.r(T)}$$$RNA1{StrandType:ss}|RNA2{StrandType:as}$	29
RNA1{r(A)p.r(G)p.r(A)p.r(A)p.r(G)p.r(G)p.r(A)p.r(C)p.m(U)p.r(A)p.r(C)p.m(U)p.r(A)p.r(A)p.r(C)p.r(C)p.m(U)p.r(C)p.r(C)p.r(T)p.r(T)}|RNA2{r(G)p.r(G)p.r(A)p.r(G)p.r(G)p.m(U)p.m(U)p.r(A)p.r(G)p.m(U)p.r(A)p.r(G)p.m(U)p.r(C)p.r(C)p.m(U)p.m(U)p.r(C)p.m(U)p.r(T)p.r(T)}$$$RNA1{StrandType:ss}|RNA2{StrandType:as}$	49
RNA1{r(C)p.r(U)p.r(U)p.r(C)p.r(U)p.r(U)p.r(C)p.r(G)p.r(U)p.r(C)p.r(G)p.r(A)p.r(G)p.r(A)p.r(C)p.r(C)p.r(A)p.r(U)p.r(G)p.d(T)p.d(T)}|RNA2{r(C)p.r(A)p.r(U)p.r(G)p.r(G)p.r(U)p.r(C)p.r(U)p.r(C)p.r(G)p.r(A)p.r(C)p.r(G)p.r(A)p.r(A)p.r(G)p.r(A)p.r(A)p.r(G)p.d(T)p.d(T)}$$$RNA1{StrandType:ss}|RNA2{StrandType:as}$	45
RNA1{r(C)p.m(U)p.r(G)p.r(A)p.r(C)p.r(C)p.r(G)p.r(G)p.r(A)p.r(A)p.r(G)p.r(C)p.r(G)p.r(C)p.r(U)p.m(U)p.r(A)p.r(A)p.r(A)p.r(T)p.r(T)}|RNA2{r(U)p.r(U)p.m(U)p.r(A)p.r(A)p.r(G)p.r(C)p.r(G)p.r(C)p.r(U)p.r(U)p.r(C)p.r(C)p.r(G)p.r(G)p.r(U)p.m(C)p.r(A)p.r(G)p.r(T)p.r(T)}$$$RNA1{StrandType:ss}|RNA2{StrandType:as}$	85
RNA1{m(A)p.r(A)p.m(G)p.r(G)p.m(A)p.r(G)p.m(A)p.r(U)p.m(C)p.r(A)p.m(A)p.r(C)p.m(A)p.r(U)p.m(U)p.r(U)p.m(U)p.r(C)p.m(A)p.r(T)p.r(T)}|RNA2{r(U)p.m(G)p.r(A)p.m(A)p.r(A)p.m(A)p.r(U)p.m(G)p.r(U)p.m(U)p.r(G)p.m(A)p.r(U)p.m(C)p.r(U)p.m(C)p.r(C)p.m(U)p.r(U)p.r(T)p.r(T)}$$$RNA1{StrandType:ss}|RNA2{StrandType:as}$	65
RNA1{r(A)p.r(A)p.r(A)p.r(C)p.r(C)p.r(U)p.r(C)p.m(A)p.r(G)p.r(C)p.r(C)p.r(C)p.r(U)p.r(A)p.r(A)p.r(C)p.r(G)p.r(G)p.r(U)p.r(T)p.r(T)}|RNA2{r(A)p.r(C)p.r(C)p.r(G)p.r(U)p.m(U)p.r(A)p.r(G)p.r(G)p.r(G)p.r(C)p.r(U)p.r(G)p.r(A)p.r(G)p.r(G)p.r(U)p.r(U)p.r(U)p.r(T)p.r(T)}$$$RNA1{StrandType:ss}|RNA2{StrandType:as}$	70
RNA1{[fl2r](C)p.r(G)p.[fl2r](G)p.r(G)p.[fl2r](U)p.r(A)p.[fl2r](C)p.r(G)p.[fl2r](A)p.r(G)p.[fl2r](C)p.r(C)p.[fl2r](G)p.r(G)p.[fl2r](A)p.r(A)p.[fl2r](C)p.r(C)p.r(U)p.r(T)p.r(T)}|RNA2{r(A)p.r(G)p.r(G)p.r(U)p.r(U)p.r(C)p.r(C)p.r(G)p.r(G)p.r(C)p.r(U)p.r(C)p.r(G)p.r(U)p.r(A)p.r(C)p.r(C)p.r(C)p.r(G)p.r(T)p.r(T)}$$$RNA1{StrandType:ss}|RNA2{StrandType:as}$	61
RNA1{r(G)p.[hna](A)p.r(C)p.r(G)p.r(U)p.r(A)p.r(A)p.[hna](A)p.r(C)p.r(G)p.r(G)p.r(C)p.r(C)p.[hna](A)p.r(C)p.r(A)p.[hna](A)p.r(G)p.r(U)p.r(U)p.r(C)}|RNA2{[fl2r](A)p.m(C)p.[fl2r](U)p.m(U)p.[fl2r](G)p.m(U)p.[fl2r](G)p.m(G)p.[fl2r](C)p.m(C)p.[fl2r](G)p.m(U)p.[fl2r](U)p.m(U)p.[fl2r](A)p.m(C)p.[fl2r](G)p.m(U)p.[fl2r](C)p.m(G)p.[fl2r](C)}$$$RNA1{StrandType:ss}|RNA2{StrandType:as}$	7.8
RNA1{m(U)p.r(A)p.r(G)p.r(C)p.r(C)p.r(A)p.r(G)p.r(A)p.r(G)p.r(C)p.r(C)p.r(A)p.r(A)p.r(A)p.r(G)p.r(A)p.r(A)p.r(G)p.r(C)p.r(T)p.r(T)}|RNA2{r(G)p.r(C)p.r(U)p.r(U)p.r(C)p.r(U)p.r(U)p.r(U)p.r(G)p.r(G)p.r(C)p.r(U)p.r(C)p.r(U)p.r(G)p.r(G)p.r(C)p.m(U)p.r(A)p.r(T)p.r(T)}$$$RNA1{StrandType:ss}|RNA2{StrandType:as}$	82
RNA1{[fl2r](G)p.m(A)p.[fl2r](C)p.m(G)p.[fl2r](U)p.m(A)p.[fl2r](A)p.m(A)p.[fl2r](C)p.m(G)p.[fl2r](G)p.m(C)p.[fl2r](C)p.m(A)p.[fl2r](C)p.m(A)p.[fl2r](A)p.m(G)p.[fl2r](U)p.m(U)p.[fl2r](C)}|RNA2{r(A)p.r(C)p.[lna](T)p.r(U)p.r(G)p.[lna](T)p.r(G)p.r(G)p.r(C)p.r(C)p.r(G)p.r(U)p.r(U)p.[lna](T)p.r(A)p.r(C)p.r(G)p.[lna](T)p.r(C)p.[lna](G)p.[lna](C)}$$$RNA1{StrandType:ss}|RNA2{StrandType:as}$	1.5
RNA1{r(C)p.r(G)p.r(U)p.r(A)p.r(C)p.r(G)p.[s4r](C)p.[s4r](G)p.[s4r](G)p.[s4r](A)p.[s4r](A)p.[s4r](U)p.[s4r](A)p.r(C)p.r(U)p.r(U)p.r(C)p.r(G)p.r(A)p.r(T)p.r(T)}|RNA2{r(U)p.r(C)p.r(G)p.r(A)p.r(A)p.r(G)p.r(U)p.r(A)p.r(U)p.r(U)p.r(C)p.r(C)p.r(G)p.r(C)p.r(G)p.r(U)p.r(A)p.r(C)p.r(G)p.r(T)p.r(T)}$$$RNA1{StrandType:ss}|RNA2{StrandType:as}$	87.4
RNA1{r(C)p.r(G)p.r(U)p.r(A)p.r(C)p.r(G)p.r(C)p.r(G)p.r(G)p.r(A)p.r(A)p.r(U)p.r(A)p.r(C)p.r(U)p.[s4r](U)p.[s4r](C)p.[s4r](G)p.[s4r](A)p.r(T)p.r(T)}|RNA2{r(U)p.r(C)p.r(G)p.r(A)p.r(A)p.r(G)p.r(U)p.r(A)p.r(U)p.r(U)p.r(C)p.r(C)p.r(G)p.r(C)p.r(G)p.r(U)p.r(A)p.r(C)p.r(G)p.r(T)p.r(T)}$$$RNA1{StrandType:ss}|RNA2{StrandType:as}$	94.3
RNA1{m(A)p.m(A)p.r(C)p.r(C)p.r(C)p.m(A)p.r(C)p.r(C)p.m(A)p.r(C)p.m(A)p.r(G)p.r(C)p.m(U)p.m(A)p.r(G)p.m(A)p.m(A)p.r(C)p.m(U)p.m(U)}|RNA2{r(A)p.r(A)p.r(G)p.r(U)p.r(U)p.r(C)p.m(U)p.m(A)p.r(G)p.r(C)p.r(U)p.r(G)p.r(U)p.r(G)p.r(G)p.r(U)p.r(G)p.r(G)p.r(G)p.r(U)p.r(U)}$$$RNA1{StrandType:ss}|RNA2{StrandType:as}$	44
RNA1{[hna](G)p.[hna](A)p.[hna](C)p.r(G)p.r(U)p.r(A)p.r(A)p.r(A)p.r(C)p.r(G)p.r(G)p.r(C)p.r(C)p.r(A)p.r(C)p.r(A)p.r(A)p.[hna](G)p.[hna](U)p.[hna](U)p.d(T)}|RNA2{r(A)p.[hna](C)p.r(U)p.r(U)p.r(G)p.r(U)p.r(G)p.r(G)p.r(C)p.r(C)p.r(G)p.r(U)p.r(U)p.r(U)p.r(A)p.r(C)p.r(G)p.[hna](U)p.[hna](C)p.[hna](G)p.d(T)}$$$RNA1{StrandType:ss}|RNA2{StrandType:as}$	77.4
RNA1{r(A)p.r(A)p.m(U)p.r(A)p.r(A)p.r(G)p.r(C)p.r(A)p.r(G)p.r(C)p.r(U)p.r(C)p.r(G)p.r(C)p.r(G)p.r(C)p.r(U)p.r(C)p.r(C)p.r(T)p.r(T)}|RNA2{r(G)p.r(G)p.r(A)p.r(G)p.r(C)p.r(G)p.r(C)p.r(G)p.r(A)p.r(G)p.r(C)p.r(U)p.r(G)p.r(C)p.r(U)p.m(U)p.r(A)p.r(U)p.r(U)p.r(T)p.r(T)}$$$RNA1{StrandType:ss}|RNA2{StrandType:as}$	69
RNA1{r(A)p.r(A)p.r(A)p.r(C)p.r(C)p.r(C)p.r(C)p.[fl2r](U)p.r(A)p.r(G)p.r(A)p.r(G)p.r(G)p.[fl2r](G)p.r(C)p.r(A)p.r(A)p.r(G)p.r(U)p.r(T)p.r(T)}|RNA2{r(A)p.r(C)p.r(U)p.[fl2r](U)p.r(G)p.r(C)p.r(C)p.r(C)p.r(U)p.r(C)p.[fl2r](U)p.r(A)p.r(G)p.r(G)p.r(G)p.r(G)p.r(U)p.r(U)p.r(U)p.r(T)p.r(T)}$$$RNA1{StrandType:ss}|RNA2{StrandType:as}$	82
RNA1{m(U)p.r(A)p.r(A)p.r(A)p.r(G)p.r(C)p.r(U)p.r(G)p.r(G)p.r(A)p.r(A)p.r(A)p.r(G)p.r(G)p.r(G)p.r(A)p.r(C)p.r(G)p.r(G)p.r(T)p.r(T)}|RNA2{r(C)p.r(C)p.r(G)p.r(U)p.r(C)p.r(C)p.r(C)p.r(U)p.r(U)p.r(U)p.r(C)p.r(C)p.r(A)p.r(G)p.r(C)p.r(U)p.r(U)p.m(U)p.r(A)p.r(T)p.r(T)}$$$RNA1{StrandType:ss}|RNA2{StrandType:as}$	67
RNA1{r(G)p.r(A)p.r(C)p.r(G)p.[hna](U)p.r(A)p.r(A)p.[hna](A)p.r(C)p.r(G)p.[hna](G)p.r(C)p.r(C)p.[hna](A)p.r(C)p.r(A)p.r(A)p.r(G)p.r(U)p.[hna](U)p.d(T)}|RNA2{r(A)p.r(C)p.[hna](U)p.r(U)p.r(G)p.r(U)p.r(G)p.r(G)p.r(C)p.r(C)p.r(G)p.r(U)p.r(U)p.r(U)p.r(A)p.r(C)p.r(G)p.[hna](U)p.[hna](C)p.[hna](G)p.d(T)}$$$RNA1{StrandType:ss}|RNA2{StrandType:as}$	25.2
RNA1{r(G)p.r(U)p.r(U)p.[fl2r](C)p.r(A)p.r(C)p.r(G)p.r(U)p.r(C)p.r(C)p.[fl2r](U)p.r(A)p.r(C)p.r(C)p.r(C)p.r(C)p.r(U)p.r(U)p.r(U)p.r(T)p.r(T)}|RNA2{r(A)p.r(A)p.r(A)p.r(G)p.r(G)p.r(G)p.r(G)p.[fl2r](U)p.r(A)p.r(G)p.r(G)p.r(A)p.r(C)p.r(G)p.[fl2r](U)p.r(G)p.r(A)p.r(A)p.r(C)p.r(T)p.r(T)}$$$RNA1{StrandType:ss}|RNA2{StrandType:as}$	65
